Legend:
Type in all cases: in vivo
[1] = system: Abutilon theophrasti (ABUTH); assay: Glasshouse herbicide test, post-emergence; conditions: POST Application; 500 g/h; evaluated after 13 days
Experimental: (§1) Seeds of a variety of test species are shown in standard soil in pots (Lolium perenne (LOLPE), Amaranthus retoflexus (AMARE), Abutilon theophrasti (ABUTH), Setaria faberi (SETFA), Echinochloa crus-galli (ECHCG), Ipomoea hederacea (IPOHE)). After cultivation for one day (pre-emergence) or after 8 days cultivation (post-emergence) under controlled conditions in a glasshouse (at 24/16° C., day/night; 14 hours light; 65% humidity), the plants are sprayed with an aqueous spray solution derived from the formulation of the technical active ingredient in acetone/water (50:50) solution containing 0.5% Tween 20 (polyoxyethelyene sorbitan monolaurate, CAS RN 9005-64-5). Compounds are applied at 500 g/h. The test plants are then grown in a glasshouse under controlled conditions in a glasshouse (at 24/16° C., day/night; 14 hours light; 65% humidity) and watered twice daily. After 13 days for pre and post-emergence, the test is evaluated for the percentage damage caused to the plant. The biological activities are shown in the following table on a five point scale (5=80-100%; 4=60-79%; 3=40-59%; 2=20-39%; 1=0-19%).

[2] = system: Amaranthus retoflexus (AMARE); assay: Glasshouse herbicide test, post-emergence; conditions: POST Application; 500 g/h; evaluated after 13 days
Experimental: as §1

[3] = system: Echinochloa crus-galli (ECHCG); assay: Glasshouse herbicide test, post-emergence; conditions: POST Application; 500 g/h; evaluated after 13 days
Experimental: as §1

[4] = system: Ipomoea hederacea (IPOHE); assay: Glasshouse herbicide test, post-emergence; conditions: POST Application; 500 g/h; evaluated after 13 days
Experimental: as §1

[5] = system: Setaria faberi (SETFA); assay: Glasshouse herbicide test, post-emergence; conditions: POST Application; 500 g/h; evaluated after 13 days
Experimental: as §1

[6] = system: Abutilon theophrasti (ABUTH); assay: Glasshouse herbicide test, pre-emergence; conditions: PRE Application; 500 g/h; evaluated after 13 days
Experimental: as §1

[7] = system: Amaranthus retoflexus (AMARE); assay: Glasshouse herbicide test, pre-emergence; conditions: PRE Application; 500 g/h; evaluated after 13 days
Experimental: as §1

[8] = system: Echinochloa crus-galli (ECHCG); assay: Glasshouse herbicide test, pre-emergence; conditions: PRE Application; 500 g/h; evaluated after 13 days
Experimental: as §1

[9] = system: Ipomoea hederacea (IPOHE); assay: Glasshouse herbicide test, pre-emergence; conditions: PRE Application; 500 g/h; evaluated after 13 days
Experimental: as §1

[10] = system: Setaria faberi (SETFA); assay: Glasshouse herbicide test, pre-emergence; conditions: PRE Application; 500 g/h; evaluated after 13 days
Experimental: as §1

[11] = system: Amaranthus retroflexus (AMARE); assay: Comparative experiment, post-emergence phytotoxicity; conditions: POST Application; Rate 125 g/ha
Experimental: (§2) A comparative experiment is conducted to show the advantage provided by the compounds of the present invention. Thus the biological performance of representative compounds 1.001, 1.043, 2.002 & 2.024 of the present invention are compared with Compound C1, which is an aniline compound of the type referred to in WO2012/028579. Results are given as (%) phytotoxicity observed.

[12] = system: Setaria faberi (SETFA); assay: as above; conditions: POST Application; Rate 125 g/ha
Experimental: as §2

Row | SMILES | percentage damage caused to the plant, five point scale, ABUTH [1] | percentage damage caused to the plant, five point scale, AMARE [2] | percentage damage caused to the plant, five point scale, ECHCG [3] | percentage damage caused to the plant, five point scale, IPOHE [4] | percentage damage caused to the plant, five point scale, SETFA [5] | percentage damage caused to the plant, five point scale, ABUTH [6] | percentage damage caused to the plant, five point scale, AMARE [7] | percentage damage caused to the plant, five point scale, ECHCG [8] | percentage damage caused to the plant, five point scale, IPOHE [9] | percentage damage caused to the plant, five point scale, SETFA [10] | (%) phytotoxicity observed, AMARE [11] [%] | (%) phytotoxicity observed, SETFA [12] [%]
1 | CON(C(C)=O)c1c(C(F)(F)F)ccc(C(=O)Nc2nnc(C)o2)c1C [Compound 2.002] | 5 (5=80-100%) | 5 (5=80-100%) | 5 (5=80-100%) | 5 (5=80-100%) | 5 (5=80-100%) | 5 (5=80-100%) | 5 (5=80-100%) | 5 (5=80-100%) | 5 (5=80-100%) | 5 (5=80-100%) | 50 | 90
2 | CCCON(C)c1c(S(C)(=O)=O)ccc(C(=O)Nc2nnc(C)o2)c1Cl [Compound 2.024] | 5 (5=80-100%) | 5 (5=80-100%) | 5 (5=80-100%) | 5 (5=80-100%) | 5 (5=80-100%) | 5 (5=80-100%) | 5 (5=80-100%) | 5 (5=80-100%) | 5 (5=80-100%) | 5 (5=80-100%) | 80 | 80
